# Results published in patent publication EP0080284A1, “Derivatives of clavulanic acid, processes for their preparation and their use” (BEECHAM GROUP PLC, priority 1981, dated 1983).
# Assays:
# Assay in all cases: standard MIC test, synergist in combination with amoxycillin
# Assay type in all cases: cell-based
# Conditions in all cases: substance alone, unit assumed
# E.coli JT39 = test system: E.coli JT39
# Experimental: (§1) In a standard MIC test the compound of Example 2 was tested as a synergist in combination with amoxycillin: […]
# Klebsiella Aerogenes E70 = test system: Klebsiella Aerogenes E70
# Experimental: as §1
# Staph Aureus Russell = test system: Staph Aureus Russell
# Experimental: as §1
SMILES,MIC (E.coli JT39) [µg/mL],MIC (Klebsiella Aerogenes E70) [µg/mL],MIC (Staph Aureus Russell) [µg/mL]
CC1(C)S[C@@H]2[C@H](NC(=O)[C@H](N)c3ccc(O)cc3)C(=O)N2[C@H]1C(=O)O [Amoxycillin],2000,500,500
"COC(OC)OC/C=C1\O[C@@H]2CC(=O)N2[C@H]1C(=O)O [Ex. 2, Lithium 9-O-(dimethoxymethyl)clavulanate]",31,62,62
